Test results as given in patent EP4803519A1, “NOVEL PRMT5 INHIBITOR AND USE THEREOF” (Shanghai Apeiron Therapeutics Company Limited, priority 2023, dated 2025).

Tests used:
Format in all cases: cell-based
HCT-116 wild-type cells = test: Inhibitory activity on proliferation of HCT-116 wild-type cells (Cell-Titer Glo); conditions: Homo sapiens, 144 h, incubated 6 d, 0-10,000 nM
Description: (§1) Materials and cells: HCT-116 wild-type cells were purchased from Kyinno Biotechnology (China); RPMI-1640 medium, and fetal bovine serum were purchased from Thermo Fisher (United States); 384-well plates were purchased from PerkinElmer (United States); Cell-Titer Glo kit was purchased from Promega (United States).
Cell culture: HCT-116 wild-type cells were cultured in RPMI-1640 medium containing 10% fetal bovine serum at 37°C and 5% carbon dioxide. Only cells in the logarithmic growth phase could be used for the test.
Test of cell proliferation activity: Cell-Titer Glo kit was used to test the proliferation inhibitory activity of the compound on HCT-116 wild-type cells. The cell concentration was adjusted, rendering that cells were inoculated into a 384-well plate at 40 µL per well and incubated overnight at 37°C and 5% carbon dioxide. 80 nL of the compound was added to each well to reach a final concentration of 0-10,000 nM (starting concentration 10,000 nM, 2.5-fold dilution, 10 points), and the cell plate with 0.2% DMSO content was incubated at 37°C and 5% carbon dioxide for 6 d. 40 µL of Cell-Titer Glo reagent was added to test cell viability.

[1] = system: HCT-116 MTAP(-/-)deleted cells; test: Inhibitory activity on proliferation of HCT-116 MTAP(-/-)deleted cells (Cell-Titer Glo); conditions: Homo sapiens, 144 h, incubated 6 d, 0-1,000 nM
Description: as §1, with “MTAP(-/-)deleted” for “wild-type”
Cell culture: HCT116 MTAP(-/-)deleted cells were cultured with RPMI 1640 medium containing 10% fetal bovine serum at 37°C in 5% carbon dioxide. Only cells in the logarithmic growth phase could be used for the test.
(§2) Test of inhibitory activity on cell proliferation: The Cell-Titer Glo kit was used to test the proliferation inhibitory activity of the compounds on HCT-116 MTAP(-/-)deleted cells. The cell concentration was adjusted, rendering that cells were inoculated into a 384-well plate at 40 µL per well and incubated overnight at 37°C and 5% carbon dioxide. 80 nL of the compound was added into each well to reach a final concentration of 0-1,000 nM (starting concentration 1,000 nM, 2.5-fold dilution, 10 points), and the cell plate with 0.2% DMSO content was incubated at 37°C and 5% carbon dioxide for 6 d. 40 µL of Cell-Titer Glo reagent was added to test cell viability.

[2] = system: LU99 MTAP overexpressing cells; test: Inhibitory activity on proliferation of LU99 MTAP overexpressing cells (Cell-Titer Glo); conditions: Homo sapiens, Lu-99, 144 h, incubated 6 d, 0-10,000 nM
Description: (§3) Materials and cells: LU99 MTAP overexpressing cell line was purchased from Kyinno Biotechnology (China); cell culture medium and fetal bovine serum were purchased from Thermo Fisher Scientific (USA); 384-well plates were purchased from PerkinElmer (USA); Cell-Titer Glo kits were purchased from Promega (USA).
Cell culture: LU99 MTAP overexpressing cells were cultured with medium containing 10% fetal bovine serum at 37°C in 5% carbon dioxide. Only cells in the logarithmic growth phase could be used for the test.
Test of inhibitory activity on cell proliferation: The Cell-Titer Glo kit was used to test the proliferation inhibitory activity of the compounds on LU99 MTAP overexpressing cells. The cell concentration was adjusted, rendering that cells were inoculated into a 384-well plate at 40 µL per well and incubated overnight at 37°C and 5% carbon dioxide. 40 nL of the compound was added to each well to reach a final concentration of 0-10,000 nM (starting concentration 10,000 nM, 2.5-fold dilution, 10 points), and the cell plate with 0.2% DMSO content was incubated at 37°C and 5% carbon dioxide for 6 d. 40 µL of Cell-Titer Glo reagent was added to test cell viability.

[3] = system: LU99 MTAP(-/-)deleted cells; test: Inhibitory activity on proliferation of LU99 MTAP(-/-)deleted cells (Cell-Titer Glo); conditions: Homo sapiens, Lu-99, 144 h, incubated 6 d, 0-1,000 nM
Description: as §3, with “deleted” for “overexpressing”
Cell culture: LU99 MTAP(-/-)deleted cells were cultured with medium containing 10% fetal bovine serum at 37°C in 5% carbon dioxide. Only cells in the logarithmic growth phase could be used for the test.
as §2, with “on LU99” for “on HCT-116”, “dioxide. 40” for “dioxide. 80”, “added to” for “added into”

| SMILES | IC50 (HCT-116 wild-type cells) | IC50 [1] | IC50 [2] | IC50 [3] |
| --- | --- | --- | --- | --- |
| Cc1ncc(-c2ccc3c(c2)C(C)(C)OC[C@H]3N(C)C(=O)c2ccc3nc(N)c4cnn(C)c4c3c2)cn1 [Example 34, (S)-4-amino-N-(1,1-dimethyl-7-(2-methylpyrimidin-5-yl)isochroman-4-yl)-N,1-dimethyl-1H-pyrazolo[4,3-c]quinoline-8-carboxamide] | 1620 nM | 8.5 nM | 1660 nM | 5.2 nM |
| CN(C(=O)c1ccc2nc(N)c3cnn(C)c3c2c1)C1COC(C)(C)c2cc(-c3cccc4c3cnn4C)ccc21 (stereo not shown) [Example 46, 4-amino-N-(1,1-dimethyl-7-(1-methyl-1H-indazol-4-yl)isochroman-4-yl)-N,1-dimethyl-1H-pyrazolo[4,3-c]quinoline-8-carboxamide] | 1100 nM | 4.3 nM | 1050 nM | 7.9 nM |
| CN(C(=O)c1ccc2nc(N)c3cnn(C)c3c2c1)C1COC(C)(C)c2cc(-c3cnn(C)c3)ccc21 (stereo not shown) [Example 7, 4-amino-N-(1,1-dimethyl-7-(1-methyl-1H-pyrazol-4-yl)isochroman-4-yl)-N,1-dimethyl-1H-pyrazolo[4,3-c]quinoline-8-carboxamide] | 2520 nM | 5 nM | 3100 nM | 3.6 nM |
| CN(C(=O)c1cc2c(cc1Cl)nc(N)c1cnn(C)c12)C1COC(C)(C)c2cc(C(F)(F)F)ccc21 (stereo not shown) [Example 24, 4-amino-7-chloro-N-(1,1-dimethyl-7-(trifluoromethyl)isochroman-4-yl)-N,1-dimethyl-1H-pyrazolo[4,3-c]quinoline-8-carboxamide] | 156 nM | 15.1 nM | 252 nM | 16.4 nM |
| CN(C(=O)c1ccc2nc(N)c3ccncc3c2c1)C1COC(C)(C)c2cc(C(F)(F)F)ccc21 (stereo not shown) [Example 22, 5-amino-N-(1,1-dimethyl-7-(trifluoromethyl)isochroman-4-yl)-N-methylbenzo[c][2,6]naph thyridine-9-carboxamide] | 1250 nM | 13.4 nM | 771 nM | 25.5 nM |
| CN(C(=O)c1ccc2nc(N)c3cnn(C)c3c2c1)[C@@H]1COC(C)(C)c2cc(-c3cncc(C(F)(F)F)c3)ccc21 [Example 41, (S)-4-amino-N-(1,1-dimethyl-7-(5-(trifluoromethyl)pyridin-3-yl)isochroman-4-yl)-N,1-dimethyl-1H-pyrazolo[4,3-c]quinoline-8-carboxamide] | 1030 nM | 4.6 nM | 1860 nM | 6.1 nM |
| CN(C(=O)c1cc2c(cc1C(F)(F)F)nc(N)c1cnn(C)c12)[C@@H]1COC(C)(C)c2cc(C(F)(F)F)ccc21 [Example 38, N-[(4S)-1,1-dimethyl-7-(trifluoromethyl)isochroman-4-yl] [4-amino-1-methyl-7-(trifluoromethyl)pyrazolo[4,5-c]quinolin-8-yl]-N-methylformamide] | 1470 nM | 8.1 nM | 2050 nM | 15 nM |
| CN(C(=O)c1cc2c(cn1)nc(N)c1cnn(C)c12)[C@@H]1COC(C)(C)c2cc(C(F)(F)F)ccc21 [Example 28, (S)-4-amino-N-(1,1-dimethyl-7-(trifluoromethyl)isochroman-4-yl)-N,1-dimethyl-1H-pyrazolo[4,3-c][1,7]naphthyridine-8-carboxamide] | 226 nM | 10.3 nM | 376 nM | 10.7 nM |
| CN(C(=O)c1cc2c(cn1)nc(N)c1cnn(C)c12)C1COC(C)(C)c2cc(C(F)(F)F)ncc21 (stereo not shown) [Example 79, 4-Amino-N-(1,1-dimethyl-7-(trifluoromethyl)-3,4-dihydro-1H-pyrano[4,3-c]pyridin-4-yl)-N,1-dimethyl-1H-pyrazolo[4,3-c][1,7]naphthyridine-8-carboxamide] | – | – | 4380 nM | 41.9 nM |
| CN(C(=O)c1ccc2nc(N)c3cnn(C)c3c2c1)[C@@H]1COC(C)(C)c2cc(N3CC4CCC(C3)O4)ccc21 [Example 85, N-[(4S)-1,1-dimethyl-7-(8-oxa-3-azabicyclo[3.2.1]octan-3-yl)isochroman-4-yl](4-amino-1-methylpyrazolo[4,5-c]quinolin-8-yl)-N-methylformamide] | – | – | 2140 nM | 7.1 nM |
| CN(C(=O)c1ccc2nc(N)c3nsnc3c2c1)C1COC2(CCC2)c2cc(C(F)(F)F)ccc21 (stereo not shown) [Example 59, 4-Amino-N-methyl-N-(7'-(trifluoromethyl)spiro[cyclobutane-1,1'-isochroman]-4'-yl)-[1,2,5]thiadiazolo[3,4-c]quinoline-8-carboxamide] | – | – | 4020 nM | 3140 nM |
| CN(C(=O)c1ccc2nc(N)c3cnn(C)c3c2c1)[C@@H]1COC2(CCCC2)c2cc(C(F)(F)F)ccc21 [Example 82, (S)-4-amino-N,1-dimethyl-N-(7'-(trifluoromethyl)spiro[cyclopentane-1,1'-isochroman]-4'-yl)-1H-pyrazolo[4,3-c]quinoline-8-carboxamide] | – | – | 523 nM | 5.9 nM |

Further lines, with some results ahead:

| IC50 (HCT-116 wild-type cells) | IC50 [1] | SMILES | IC50 [2] | IC50 [3] |
| --- | --- | --- | --- | --- |
| 1790 nM | 17 nM | CN(C(=O)c1cc2c3c(c(N)nc2cn1)COC3)C1COC2(CCC2)c2cc(C(F)(F)F)ccc21 (stereo not shown) [Example 29, 4-Amino-N-methyl-N-(7'-(trifluoromethyl)spiro[cyclobutane-1,1'-isochroman]-4'-yl)-1,3-dihydrofuro[3,4-c][1,7]naphthyridine-8-carboxamide] | 1030 nM | 23.7 nM |
| 1530 nM | 5.7 nM | CN(C(=O)c1ccc2nc(N)c3cnn(C)c3c2c1)[C@@H]1COC(C)(C)c2cc(-c3cnn(C(F)(F)F)c3)ccc21 [Example 32, (S)-4-amino-N-(1,1-dimethyl-7-(1-(trifluoromethyl)-1H-pyrazol-4-yl)isochroman-4-yl)-N,1-dimethyl-1H-pyrazolo[4,3-c]quinoline-8-carboxamide] | 1890 nM | 6.8 nM |
| 767 nM | 5.3 nM | CN(C(=O)c1ccc2nc(N)c3cnn(C)c3c2c1)C1COC2(CCC2)c2cc(C(F)(F)F)ccc21 (stereo not shown) [Example 30] | 862 nM | 10.9 nM |
| 1140 nM | 5.2 nM | CN(C(=O)c1ccc2nc(N)c3cnn(C)c3c2c1)C1COC(C)(C)c2nc(C(F)(F)F)ccc21 (stereo not shown) [Example 39] | 1290 nM | 8.4 nM |
| 10500 nM | 103 nM | CN(C(=O)c1ccc2nc(N)c3cnn(C)c3c2c1)[C@@H]1COC(C)(C)c2cc(N3CCNCC3)ccc21 [Example 83] | 12700 nM | 102 nM |
| 4100 nM | 33.4 nM | CN(C(=O)c1ccc2nc(N)c3cnccc3c2c1)[C@@H]1COC(C)(C)c2cc(C(F)(F)F)ccc21 [Example 37, (S)-5-amino-N-(1,1-dimethyl-7-(trifluoromethyl)isochroman-4-yl)-N-methylbenzo[c][2,7]naph thyridine-9-carboxamide] | 810 nM | 36.4 nM |
